{"source": "patent US20220002306A1", "about": "“CRYSTAL FORM OF UPADACITINIB AND PREPARATION METHOD AND USE THEREOF” (CRYSTAL PHARMACEUTICAL (SUZHOU) CO., LTD., priority 2018, published 2022)", "key": {"[1]": {"conditions": "disclosed in WO2017066775A1, cited from earlier work"}, "[2]": {"assay": "Compressibility (tablet hardness, tensile strength)", "assay_type": "physicochemical", "procedure": "An ENERPAC manual tablet press was used for compression. 80 mg of Form CSI of the present disclosure and prior art Form C were weighed and added into the dies of a round tooling (ensuring the isotropy of tables), compressed at 10 KN manually, and then stored at room temperature for 24 h until complete elastic recovery. Hardness (H) was tested with an intelligent tablet hardness tester. Diameter (D) and thickness (L) were tested with a caliper. […] Under a certain force, the greater the tensile strength, the better the compressibility."}, "[3]": {"assay": "In vitro dissolution of drug product (tablet) in pH 6.8 PBS", "assay_type": "physicochemical", "conditions": "for Cumulative dissolution: drug product of example 16, 30 mg, 37° C., paddle 75 rpm"}, "[4]": {"conditions": "FaSSIF (pH 6.5, 37° C.); disclosed in WO2017066775A1; cited from earlier work"}, "[5]": {"assay": "Intrinsic dissolution rate in pH 6.8 PBS", "assay_type": "physicochemical", "conditions": "for IDR / Cumulative dissolution: 37° C.; for Cumulative dissolution: 100 rpm; for Slope: regression line of data within 8-15 minutes", "procedure": "(§1) Solubility measurement for solubility, dissolution, and intrinsic dissolution rate in PBS in the present disclosure:\nThe whole pellet was transferred to a dissolution apparatus to test the intrinsic dissolution rate. The slope (in μg/min) of the regression line was calculated according to the data within 8-15 minutes. Intrinsic dissolution rate (IDR) was further calculated according to the slope (in μg/min/cm^2)."}, "[6]": {"assay": "Crystalline form before and after formulation process (XRPD)", "assay_type": "physicochemical", "excerpt": "Form CSI of the present disclosure was made into tablet according to the formulation in Table 15 and process in Table 16. Crystalline forms before and after formulation were checked by XRPD, and the XRPD pattern overlay is substantially as depicted in FIG. 17.\nCrystalline forms before and after formulation were checked by XRPD, and the comparison of XRPD patterns are substantially as depicted in FIG. 18."}, "[7]": {"assay": "Kinetic solubility in pH7.4 PBS, FaSSIF and FeSSIF", "assay_type": "physicochemical", "conditions": "for solubility at 24 h / solubility at 34 h / solubility at 48 h: thermodynamic from solid", "procedure": "Solubility measurement for freebase content in upadacitinib freebase acetic acid solvate of the present disclosure. Solubility measurement for upadacitinib freebase acetic acid solvate of the present disclosure in FaSSIF and FeSSIF:\nas §1\nThe solubility of Form C was disclosed in WO2017066775A1. In order to have a comparison with Form C, solubility of Form CSI was measured. Saturated solutions of Form CSI of the present disclosure were prepared with pH7.4 PBS, pH6.5 FaSSIF and pH5.0 FeSSIF at 25° C. or 37° C. After equilibration for 24 h, 34 h and 48 h, the saturated solutions were obtained by filtration. The concentrations of compound I in the saturated solutions were measured by high performance liquid chromatography (HPLC) and the results are listed in Table 8."}, "[8]": {"assay": "Particle size distribution", "assay_type": "physicochemical", "conditions": "wet mode, Isopar G, after 30 seconds of ultrasound", "procedure": "The particle size distribution data in the present disclosure were acquired by a Mastersizer 3000 laser particle size analyzer of Malvern. The test is carried out in wet mode by Hydro MV dispersing device, and the dispersion medium is Isopar G. The method parameters of the laser particle size analyzer are as follows:\nThe mixture was mixed thoroughly and transferred into the Hydro MV dispersing device. The experiment started when the obscuration is in an appropriate range. The particle size distribution was tested after 30 seconds of ultrasound. The particle size distribution (PSD) patterns are substantially as depicted in FIG. 15 (Form CSI) and FIG. 16 (Form C)."}, "[9]": {"assay": "Mechanical stability (tableting, grinding; XRPD)", "assay_type": "physicochemical", "procedure": "20 mg of Form CSI was weighed into the die of 16 mm round tooling (IDR punch), and tableted by ENERPAC manual tablet press with 3 kN, 7 kN, and 14 kN pressure.\nA small amount of Form CSI was grounded manually for 5 minutes in a mortar."}, "[10]": {"assay": "Storage stability of drug substance (XRPD before and after storage)", "assay_type": "physicochemical", "conditions": "for Solid Form after storage: sealed", "procedure": "Solid samples of Form CSI in the present disclosure were sealed and stored under different conditions of 4° C., 25° C./60% RH, 40° C./75% RH, and 60° C./75% RH. Crystalline form was checked by XRPD before and after storage."}, "[11]": {"conditions": "PBS pH 7.4, aqueous buffer, pH 7.4 PBS, 25° C."}, "[12]": {"conditions": "grounded manually for 5 minutes in a mortar"}}, "note": "Several values for one entry are separate records, joined by “and”; a condition that tells them apart may be missing. Equal values may be shown once. Entries after “also recorded” stand apart in the source; their conditions may differ.", "data": [{"smiles": "CC[C@@H]1CN(C(=O)NCC(F)(F)F)C[C@@H]1c1cnc2cnc3[nH]ccc3n12", "note": "[Form A]", "values": [{"measurement": "Crystallinity and stability", "setting": "[1]", "value": "poor crystallinity and stability"}, {"measurement": "Dehydration", "setting": "[1]", "value": "can be easily dehydrated to form amorphous"}]}, {"smiles": "CC[C@@H]1CN(C(=O)NCC(F)(F)F)C[C@@H]1c1cnc2cnc3[nH]ccc3n12", "note": "[Form C in WO2017066775A1, (3S,4R)-3-ethyl-4-(3H-imidazo[1,2-a]pyrrolo[2,3-e]pyrazine-8-yl)-N-(2,2,2-trifluoroethyl) pyrrolidine-1-carboxamide, reference compound]", "values": [{"measurement": "Mean tensile strength", "setting": "[2]; 80 mg compressed at 10 KN", "value": 0.69, "unit": "MPa"}, {"measurement": "Cumulative dissolution", "setting": "[3]; 0 min", "value": 0.0, "unit": "%"}, {"measurement": "Cumulative dissolution", "setting": "[3]; 5 min", "value": 22.7, "unit": "%"}, {"measurement": "Cumulative dissolution", "setting": "[3]; 10 min", "value": 32.6, "unit": "%"}, {"measurement": "Cumulative dissolution", "setting": "[3]; 15 min", "value": 39.2, "unit": "%"}, {"measurement": "Cumulative dissolution", "setting": "[3]; 20 min", "value": 44.4, "unit": "%"}, {"measurement": "Cumulative dissolution", "setting": "[3]; 30 min", "value": 51.5, "unit": "%"}, {"measurement": "Cumulative dissolution", "setting": "[3]; 45 min", "value": 59.5, "unit": "%"}, {"measurement": "Cumulative dissolution", "setting": "[3]; 60 min", "value": 65.2, "unit": "%"}, {"measurement": "Solubility", "setting": "[4]", "value": 220, "unit": "µg/mL"}, {"measurement": "IDR", "setting": "[5]", "value": 81.6204, "unit": "μg/min/cm^2"}, {"measurement": "Cumulative dissolution", "setting": "[5]; 8 min", "value": 94.7, "unit": "µg"}, {"measurement": "Cumulative dissolution", "setting": "[5]; 10 min", "value": 207.4, "unit": "µg"}, {"measurement": "Cumulative dissolution", "setting": "[5]; 15 min", "value": 388.1, "unit": "µg"}, {"measurement": "Slope", "setting": "[5]", "value": 40.8102, "unit": "µg/min"}]}, {"smiles": "CC[C@@H]1CN(C(=O)NCC(F)(F)F)C[C@@H]1c1cnc2cnc3[nH]ccc3n12", "note": "[Form CSI, (3S,4R)-3-ethyl-4-(3H-imidazo[1,2-a]pyrrolo[2,3-e]pyrazine-8-yl)-N-(2,2,2-trifluoroethyl) pyrrolidine-1-carboxamide]", "values": [{"measurement": "Physical stability before and after formulation process", "setting": "[6]; tablet of Example 15 (Table 15, Table 16)", "value": "good physical stability"}, {"measurement": "Crystalline form after formulation process", "setting": "[6]; tablet of Example 16 (Table 17, Table 18)", "value": "remains unchanged"}, {"measurement": "Mean tensile strength", "setting": "[2]; 80 mg compressed at 10 KN", "value": 1.53, "unit": "MPa"}, {"measurement": "Hardness", "setting": "[2]; 80 mg compressed at 10 KN, tablets No. 1-3", "value": "3.53 kgf and 3.06 kgf and 3.43 kgf"}, {"measurement": "Tensile strength", "setting": "[2]; 80 mg compressed at 10 KN, tablets No. 1-3, T=2H/πDL*9.8", "value": "1.57 MPa and 1.43 MPa and 1.58 MPa"}, {"measurement": "Compressibility compared with Form C", "setting": "[2]; compressed at 10 KN", "value": "better compressibility than Form C in WO2017066775A1"}, {"measurement": "solubility at 24 h", "setting": "[7]; [11]", "value": 790, "unit": "µg/mL"}, {"measurement": "solubility at 34 h", "setting": "[7]; [11]", "value": 710, "unit": "µg/mL"}, {"measurement": "solubility at 48 h", "setting": "[7]; [11]", "value": 660, "unit": "µg/mL"}, {"measurement": "Solubility compared with Form C", "setting": "[7]; pH7.4 PBS, pH6.5 FaSSIF and pH5.0 FeSSIF", "value": "higher than that of Form C"}, {"measurement": "solubility at 24 h", "setting": "[7]; FaSSIF (pH 6.5, 37° C.)", "value": 3800, "unit": "µg/mL"}, {"measurement": "solubility at 34 h", "setting": "[7]; FaSSIF (pH 6.5, 37° C.)", "value": 4100, "unit": "µg/mL"}, {"measurement": "solubility at 48 h", "setting": "[7]; FaSSIF (pH 6.5, 37° C.)", "value": 4100, "unit": "µg/mL"}, {"measurement": "solubility at 24 h", "setting": "[7]; FeSSIF (pH 5.0, 37° C.)", "value": 3100, "unit": "µg/mL"}, {"measurement": "solubility at 34 h", "setting": "[7]; FeSSIF (pH 5.0, 37° C.)", "value": 3000, "unit": "µg/mL"}, {"measurement": "solubility at 48 h", "setting": "[7]; FeSSIF (pH 5.0, 37° C.)", "value": 3100, "unit": "µg/mL"}, {"measurement": "Particle size distribution compared with Form C in WO2017066775A1", "setting": "[8]", "value": "more uniform particle size distribution"}, {"measurement": "Dissolution rate of drug product compared with Form C", "setting": "[3]", "value": "obviously better than that of Form C in WO2017066775A1"}, {"measurement": "Cumulative dissolution", "setting": "[3]; 0 min", "value": 0.0, "unit": "%"}, {"measurement": "Cumulative dissolution", "setting": "[3]; 5 min", "value": 28.7, "unit": "%"}, {"measurement": "Cumulative dissolution", "setting": "[3]; 10 min", "value": 46.4, "unit": "%"}, {"measurement": "Cumulative dissolution", "setting": "[3]; 15 min", "value": 53.6, "unit": "%"}, {"measurement": "Cumulative dissolution", "setting": "[3]; 20 min", "value": 57.5, "unit": "%"}, {"measurement": "Cumulative dissolution", "setting": "[3]; 30 min", "value": 61.3, "unit": "%"}, {"measurement": "Cumulative dissolution", "setting": "[3]; 45 min", "value": 64.9, "unit": "%"}, {"measurement": "Cumulative dissolution", "setting": "[3]; 60 min", "value": 67.3, "unit": "%"}, {"measurement": "Crystalline state after tableting", "setting": "[9]; 3 kN, 7 kN, and 14 kN pressure", "value": "does not change"}, {"measurement": "Crystallinity after tableting", "setting": "[9]; 3 kN, 7 kN, and 14 kN pressure", "value": "remains substantially unchanged"}, {"measurement": "Crystalline state after grinding", "setting": "[9]; [12]", "value": "does not change; also recorded: remains unchanged after grinding"}, {"measurement": "Crystallinity after grinding", "setting": "[9]; [12]", "value": "remains substantially unchanged"}, {"measurement": "Time the crystalline form kept stable", "setting": "[10]; 4° C.", "value": "at least 6 months"}, {"measurement": "Chemical purity during storage", "setting": "[10]; 4° C., 40° C./75% RH and 60° C./75% RH", "value": "remains substantially unchanged"}, {"measurement": "Solid Form after storage", "setting": "[10]; 4° C., 6 months", "value": "Form CSI"}, {"measurement": "Chemical purity during storage", "setting": "[10]; 25° C./60% RH", "value": "remains substantially unchanged"}, {"measurement": "Solid Form after storage", "setting": "[10]; 25° C./60% RH, 6 months", "value": "Form CSI"}, {"measurement": "Solid Form after storage", "setting": "[10]; 40° C./75% RH, 2 weeks", "value": "Form CSI"}, {"measurement": "Solid Form after storage", "setting": "[10]; 60° C./75% RH, 2 weeks", "value": "Form CSI"}, {"measurement": "IDR", "setting": "[5]", "value": 665.4630, "unit": "μg/min/cm^2"}, {"measurement": "Cumulative dissolution", "setting": "[5]; 8 min", "value": 746.1, "unit": "µg"}, {"measurement": "Cumulative dissolution", "setting": "[5]; 10 min", "value": 1458.8, "unit": "µg"}, {"measurement": "Cumulative dissolution", "setting": "[5]; 15 min", "value": 3087.0, "unit": "µg"}, {"measurement": "Slope", "setting": "[5]", "value": 332.7315, "unit": "µg/min"}]}, {"smiles": "CC[C@@H]1CN(C(=O)NCC(F)(F)F)C[C@@H]1c1cnc2cnc3[nH]ccc3n12", "note": "[Form D]", "values": [{"measurement": "Form conversion", "setting": "[1]; high water activity", "value": "will convert to Form C"}]}]}
